Values of other authors as cited in patent publication US20240229143A1, “FORMULATION OF PEPTIDE IMMUNOTHERAPIES” (priority 2020, published 2024).

Tests used:
[1] = single amino acid
[2] = single amino acid; octanol:water
[3] = single amino acid; remark: listed apart in the source

For `C[C@H](N)C(=O)O` [Alanine (Ala)], the pl [1] is listed as 6.00, the “Log P” value [2] is listed as −2.89 and the “Log D7.4” value [3] is listed as −0.27.

In the case of `N=C(N)NCCC[C@H](N)C(=O)O` [Arginine (Arg)], the pl [1] is given as 10.76 and the “Log D7.4” value [3] is given as −1.65.

For `NC(=O)C[C@H](N)C(=O)O` [Asparagine (Asn)], the pl [1] is given as 5.41, the “Log P” value [2] is given as −3.41 and the “Log D7.4” value [3] is given as −0.98.

In the case of `N[C@@H](CC(=O)O)C(=O)O` [Asparic Acid (Asp)], the pl [1] is given as 2.77, the “Log P” value [2] is given as −3.38 and the “Log D7.4” value [3] is given as −2.06.

For `N[C@@H](CS)C(=O)O` [Cysteine (Cys)], the pl [1] is given as 5.07.

In the case of `N[C@@H](CCC(=O)O)C(=O)O` [Glutamic Acid (Glu)], the pl [1] is listed as 3.22, the “Log P” value [2] is listed as −2.94 and the “Log D7.4” value [3] is listed as −2.19.

In the case of `NC(=O)CC[C@H](N)C(=O)O` [Glutamine (Gln)], the “Log P” value [2] is listed as −3.24.

In the case of `NCC(=O)O` [Glycine (Gly)], the pl [1] is given as 5.97, the “Log P” value [2] is given as −3.25 and the “Log D7.4” value [3] is given as −0.22.

For `N[C@@H](Cc1c[nH]cn1)C(=O)O` [Histidine (His)], the pl [1] is given as 7.59, the “Log P” value [2] is given as −3.56 and the “Log D7.4” value [3] is given as −0.44.

For `CC[C@H](C)[C@H](N)C(=O)O` [Isoleucine (Ile)], the pl [1] is listed as 6.20, the “Log P” value [2] is listed as −1.72 and the “Log D7.4” value [3] is listed as 0.69.

For `CC(C)C[C@H](N)C(=O)O` [Leucine (Leu)], the “Log P” value [2] is given as −1.61.

For `NCCCC[C@H](N)C(=O)O` [Lysine (Lys)], the pl [1] is listed as 9.74, the “Log P” value [2] is listed as −4.44 and the “Log D7.4” value [3] is listed as −2.27.

For `CSCC[C@H](N)C(=O)O` [Methionine (Met)], the pl [1] is given as 5.74, the “Log P” value [2] is given as −1.84 and the “Log D7.4” value [3] is given as 0.51.

In the case of `N[C@@H](Cc1ccccc1)C(=O)O` [Phenylalanine (Phe)], the pl [1] is listed as 5.48, the “Log P” value [2] is listed as −1.63 and the “Log D7.4” value [3] is listed as 1.16.

In the case of `O=C(O)[C@@H]1CCCN1` [Proline (Pro)], the pl [1] is listed as 6.30, the “Log P” value [2] is listed as −2.50 and the “Log D7.4” value [3] is listed as 0.15.

For `N[C@@H](CO)C(=O)O` [Serine (Ser)], the pl [1] is listed as 5.68.

In the case of `C[C@@H](O)[C@H](N)C(=O)O` [Threonine (Thr)], the pl [1] is given as 5.60, the “Log P” value [2] is given as −2.92 and the “Log D7.4” value [3] is given as −0.26.

For `N[C@@H](Cc1c[nH]c2ccccc12)C(=O)O` [Tryptophan (Trp)], the pl [1] is listed as 5.89, the “Log P” value [2] is listed as −1.75 and the “Log D7.4” value [3] is listed as 1.46.

For `N[C@@H](Cc1ccc(O)cc1)C(=O)O` [Tyrosine (Tyr)], the pl [1] is given as 5.66.

For `CC(C)[C@H](N)C(=O)O` [Valine (Val)], the pl [1] is given as 5.96, the “Log P” value [2] is given as −2.08 and the “Log D7.4” value [3] is given as 0.32.
